According to patent EP1849776A1, “Azepane- or Azocane-substituted pyrazoline compounds, their preparation and use as medicaments” (LABORATORIOS DEL DR. ESTEVE, S.A., priority 2006, dated 2007):

Legend:
[1] = tested on: Male NMRI mice; assay: Mouse tetrad model, antagonistic activity against Win 55212-2; assay type: in vivo; details: against Win 55212-2 (1.25 mg/kg intravenous), substance injected 5 minutes before the agonist, tetrad component not specified
From the text: Substances with affinity for cannabinoid receptors are known to produce a wide range of pharmacological effects. It is also known that intravenous administration of a substance with affinity for cannabinoid receptors in mice produces analgesia , hypothermia, sedation and catalepsy. Individually, none of these effects can be considered as proof that a tested substance has affinity for cannabinoid-receptors, since all of these effects are common for various classes of centrally active agents. However, substances, which show all of these effects, i.e. substances that are active in this so-called tetrad model are considered to have affinity for the cannabinoid receptors. It has further been shown that cannabinoid receptor antagonists are higly effective in blocking the effects of a cannabinoid agonist in the mouse tetrad model.
The tetrad model is described, for example, in the publication of A. C. Howlett et al, International Union of Pharmacology XXVII. […]
Before testing in the behavioral procedures given below, mice are acclimatized to the experimental setting. Pre-Treatment control values are determined for analgesia hot plate latency (in seconds), rectal temperature, sedation and catalepsy.
In order to determine the agonistic activty of the substance to be tested, the mice are injected intravenously with the substance to be tested or the vehicle alone. 15 minutes after injection, latency in hot plate analgesia is measured. Rectal temperature, sedation and catalepsy are measured 20 minutes after injection.
In order to determine the antagonistic activity the identical procedure is used as for the determination of the agonistic effects, but with the difference that the substance to be evaluated for its antagonistic activity is injectected 5 minutes before the intravenous injection of 1.25 mg/kg Win-55,212 a known cannabinoid-receptor agonist.
The hot plate analgesia is determined according to the method described in Woolfe D. et al. "The evaluation of analgesic action of pethidine hydrochloride (Demerol)", J. Pharmacol. Exp. Ther. 80, 300-307,1944. […]

[2] = target: T1, CB1-Receptor (Homo sapiens, UniProt P21554); assay: In-vitro determination of affinity to CB1 receptor (radioligand binding); details: transfected human CB1 receptors of Receptor Biology, Inc.; radioligand [^3H]-CP55940; read-out: CB1-Receptor Radiologand:[^3H]-CP55940 IC50
T1 construct: purchased Receptor Biology, Inc
Protocol: The in-vitro determination of the affinity of the inventive quaternary ammonium salts of substituted pyrazoline compounds to CB1/CB2-Rezeptors is carried out as described in the publication of Ruth A. Ross, Heather C. Brockie et al., "Agonist-inverse agonist characterization at CB1 and CB2 cannabinoid receptors of L-759633, L759656 and AM630", British Journal of Pharmacology, 126, 665-672, (1999), whereby the transfected human CB1 and CB2 receptors of Receptor Biology, Inc. are used. The radioligand used for both receptors is [^3H]-CP55940. The respective parts of the description are hereby incorporated by reference and forms part of the present disclosure.

T1 sequence (P21554 whole entry): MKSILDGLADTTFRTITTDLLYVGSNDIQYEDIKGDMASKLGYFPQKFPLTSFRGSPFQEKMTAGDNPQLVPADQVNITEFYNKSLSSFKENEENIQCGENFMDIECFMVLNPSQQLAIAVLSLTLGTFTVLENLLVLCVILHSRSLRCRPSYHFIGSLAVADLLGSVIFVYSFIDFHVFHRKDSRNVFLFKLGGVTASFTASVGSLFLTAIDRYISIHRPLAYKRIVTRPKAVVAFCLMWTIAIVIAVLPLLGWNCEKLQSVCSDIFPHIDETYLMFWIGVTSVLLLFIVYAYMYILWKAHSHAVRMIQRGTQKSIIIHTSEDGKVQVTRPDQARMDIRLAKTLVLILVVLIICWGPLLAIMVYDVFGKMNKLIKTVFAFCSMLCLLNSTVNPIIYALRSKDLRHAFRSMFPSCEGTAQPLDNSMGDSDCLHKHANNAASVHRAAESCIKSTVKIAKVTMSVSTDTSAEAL

O=C(NN1CCCCCC1)C1=NN(c2ccc(Cl)cc2Cl)C(c2ccc(Cl)cc2)C1 (centres unmarked) [Example 1, N-(azepan-1-yl)-5-(4-chlorophenyl)-1-(2,4-dichlorophenyl)-4,5-dihydro-1H-pyrazole-3-carboxamide]
Antagonistic Effect in (%) [1]: 116±2% | IC50 [2]: 25 nM

O=C(NN1CCCCCC1)C1=NN(c2ccc(Cl)cc2Cl)[C@@H](c2ccc(Cl)cc2)C1 [Example 2, (R)-N-(azepan-1-yl)-5-(4-chlorophenyl)-1-(2,4-dichlorophenyl)-4,5-dihydro-1H-pyrazole-3-carboxamide]
Antagonistic Effect in (%) [1]: 137.2% | IC50 [2]: 7.9 nM

O=C(NN1CCCCCC1)C1=NN(c2ccc(Cl)cc2Cl)C(c2ccc(Br)cc2)C1 (centres unmarked) [Example 4, N-(azepan-1-yl)-5-(4-bromophenyl)-1-(2,4-dichlorophenyl)-4,5-dihydro-1H-pyrazole-3-carboxamide]
Antagonistic Effect in (%) [1]: 100±6%
